{"source": "patent US11649238B2", "about": "“Substituted pyrazolo[1,5-a]pyrimidines as PI4K inhibitors” (GLAXOSMITHKLINE INTELLECTUAL PROPERTY DEVELOPMENT LIMITED, priority 2018, dated 2023)", "origin": "cited, not measured here", "conditions": "intranasal administration, cited from earlier work"}
{"smiles": "Cc1cc(NCc2cccc(-n3cccc3)c2)n2nc(C)c(-c3ccc(Cl)c(C(=O)N(C)CCN(C)C)c3)c2n1", "note": "[GSK3159043A]", "values": [{"measurement": "accumulation of compound in lung tissue", "setting": "rat model", "result": "substantial accumulation of compound in lung tissue"}, {"measurement": "histological findings following IN dose", "setting": "rat nasal cavity and lung", "result": "ulceration in the rat nasal cavity and bronchial epithelial hyperplasia in the rat lung"}]}
